Among the data in ChEMBL document CHEMBL5728032, “Fluorine-containing triazolopyridine, and manufacturing method, pharmaceutical composition, and application thereof” (2020) are EC50 values, retold here.

What is called EC50 is the concentration needed to bring the measured effect to its halfway point.

This test has as its target Metabotropic glutamate receptor 2 (Homo sapiens, UniProt Q14416). As to the kind of experiment: In Vitro Activity Test for mGluR2: Experimental materials: HEK/mGluR2 cell line ([…] transfected HEK cell line), DMEM (FBS) medium, positive control LY487379 (purchased from sigma; CAS: to 352317-17-1)Experimental instrument: FLIPR Tetra real-time fluorescence imaging analysis systemExperimental method: HDB Fluo-8 calcium fluorescence detection methodExperimental principle: HDB Fluo-8 calcium ion fluorescence detection method is a fast, simple and reliable fluorescence detection method of intracellular calcium concentration changes. The Fluo 8-AM fluorescent dye is an acetyl methyl ester derivative of Fluo 8 which can easily penetrate into the cell membrane by culture. The fluorescent dye in the cell will be hydrolyzed by intracellular esterase, the resulting Fluo 8 as a polar molecule, cannot easily pass through the lipid bimolecular membrane, and will be retained in the cell, and combine with calcium (Ca2+) to produce fluoresces.Cells expressing GPCR receptor protein (mGluR2) were first calibrated with a calcium ion sensitive fluorescent probe and then stimulated with the compound. After stimulation, the receptor activates the calcium ion mobilization, and the fluorescent probe captures the calcium ion to induce the fluorescence signal. The signal can be read by a fluoroscopy plate. The fluorescent plate reader contains a sample addition for compound addition, thus enabling the change of the fluorescence value of the compound be read in real time. The class given is cell-based.

Sequence of Metabotropic glutamate receptor 2 (Q14416 whole entry): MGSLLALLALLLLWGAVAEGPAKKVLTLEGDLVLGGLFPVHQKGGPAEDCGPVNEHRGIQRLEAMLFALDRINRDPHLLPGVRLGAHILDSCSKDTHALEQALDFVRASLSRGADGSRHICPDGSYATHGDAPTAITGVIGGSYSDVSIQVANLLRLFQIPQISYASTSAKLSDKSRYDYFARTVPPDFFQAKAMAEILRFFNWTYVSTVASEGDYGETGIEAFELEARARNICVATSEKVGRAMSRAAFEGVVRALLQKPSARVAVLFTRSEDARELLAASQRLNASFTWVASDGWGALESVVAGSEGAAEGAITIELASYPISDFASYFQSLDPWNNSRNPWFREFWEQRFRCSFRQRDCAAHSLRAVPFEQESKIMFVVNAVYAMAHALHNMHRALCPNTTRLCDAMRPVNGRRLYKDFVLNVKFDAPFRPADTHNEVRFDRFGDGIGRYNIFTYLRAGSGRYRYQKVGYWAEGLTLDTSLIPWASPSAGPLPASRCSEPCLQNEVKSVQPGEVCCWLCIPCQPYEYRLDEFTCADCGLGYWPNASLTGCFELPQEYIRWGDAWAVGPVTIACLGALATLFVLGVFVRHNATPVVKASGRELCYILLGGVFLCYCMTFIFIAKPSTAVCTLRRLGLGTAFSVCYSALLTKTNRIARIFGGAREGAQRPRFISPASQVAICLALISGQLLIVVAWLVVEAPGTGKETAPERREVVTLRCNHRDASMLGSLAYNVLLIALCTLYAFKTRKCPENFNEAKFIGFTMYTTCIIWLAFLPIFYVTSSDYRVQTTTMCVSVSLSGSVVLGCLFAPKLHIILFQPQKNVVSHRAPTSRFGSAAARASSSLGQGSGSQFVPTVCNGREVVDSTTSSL

Consider `Clc1c(-c2ccc3c(c2)OCO3)ccn2c(CC3CC3)nnc12`, for which the 50% effective concentration (EC50) is 890 nM.

For `c1cc2c(cc1-c1ccn3c(CC4CC4)nnc3c1)OCO2`, the EC50 was 970 nM.

With `COC(=O)c1ccc(-c2ccn3c(CC4CC4)nnc3c2Cl)c(F)c1`, the EC50 was 910 nM.
